US12077503B2, “Substituted cyclic amides and their use as herbicides” (FMC CORPORATION, priority 2015, dated 2024)

Experiments:
Assay type in all cases: in vivo
[1] = test system: velvetleaf (Abutilon theophrasti); experiment: Test G Pre-Emergence Protocol; conditions: Abutilon theophrasti, pre-emergence, 312 h, evaluated after 13 days; for pest or weed control at 15.625 g/ha: 15.625 g ai/ha; for pest or weed control at 15.625 g/ha / pest or weed control at 250 g/ha: read-out: Velvetleaf damage rating (100=total damage to plant; 0=no damage to plant); for pest or weed control at 62.5 g/ha: 62.5 g ai/ha, 100=total damage to plant, 0=no damage to plant, read-out: Velvetleaf damage rating; for pest or weed control at 250 g/ha: 250 g ai/ha
Outline: (§1)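 One day after sowing, pots are treated with a spray of test compound formulated in acetone/water 50:50 plus 0.5% Tween 20, giving 15.625, 62.5 or 250 g/ha. Evaluation on a 0–100 damage scale follows 13 days of glasshouse growth.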

[2] = test system: redroot pigweed (Amaranthus retroflexus); experiment: Test G Pre-Emergence Protocol; conditions: Amaranthus retroflexus, pre-emergence, 312 h, evaluated after 13 days; for pest or weed control at 15.625 g/ha: 15.625 g ai/ha; for pest or weed control at 15.625 g/ha / pest or weed control at 250 g/ha: read-out: Pigweed, Redroot damage rating (100=total damage to plant; 0=no damage to plant); for pest or weed control at 62.5 g/ha: 62.5 g ai/ha, 100=total damage to plant, 0=no damage to plant, read-out: Pigweed, Redroot damage rating; for pest or weed control at 250 g/ha: 250 g ai/ha
Outline: as §1

[3] = test system: ivy-leaved morning glory (Ipomoea hederacea); experiment: Test G Pre-Emergence Protocol; conditions: Ipomoea, pre-emergence, 312 h, evaluated after 13 days; for pest or weed control at 15.625 g/ha: 15.625 g ai/ha; for pest or weed control at 15.625 g/ha / pest or weed control at 250 g/ha: read-out: Morningglory, Ivy-leaved damage rating (100=total damage to plant; 0=no damage to plant); for pest or weed control at 62.5 g/ha: 62.5 g ai/ha, 100=total damage to plant, 0=no damage to plant, read-out: Morningglory, Ivy-leaved damage rating; for pest or weed control at 250 g/ha: 250 g ai/ha
Outline: as §1

[4] = test system: corn (Zea mays); experiment: Test G Pre-Emergence Protocol; conditions: Zea mays, pre-emergence, 312 h, evaluated after 13 days; for plant injury at 15.625 g/ha: 15.625 g ai/ha; for plant injury at 15.625 g/ha / plant injury at 250 g/ha: read-out: Corn damage rating (100=total damage to plant; 0=no damage to plant); for plant injury at 62.5 g/ha: 62.5 g ai/ha, 100=total damage to plant, 0=no damage to plant, read-out: Corn damage rating; for plant injury at 250 g/ha: 250 g ai/ha
Outline: as §1

[5] = test system: barnyardgrass (Echinochloa crus-galli); experiment: Test G Pre-Emergence Protocol; conditions: Echinochloa crus-galli, pre-emergence, 312 h, evaluated after 13 days; for pest or weed control at 15.625 g/ha: 15.625 g ai/ha; for pest or weed control at 15.625 g/ha / pest or weed control at 250 g/ha: read-out: Barnyardgrass damage rating (100=total damage to plant; 0=no damage to plant); for pest or weed control at 62.5 g/ha: 62.5 g ai/ha, 100=total damage to plant, 0=no damage to plant, read-out: Barnyardgrass damage rating; for pest or weed control at 250 g/ha: 250 g ai/ha
Outline: as §1

[6] = test system: giant foxtail (Setaria faberi); experiment: Test G Pre-Emergence Protocol; conditions: Setaria faberi, pre-emergence, 312 h, evaluated after 13 days; for pest or weed control at 15.625 g/ha: 15.625 g ai/ha; for pest or weed control at 15.625 g/ha / pest or weed control at 250 g/ha: read-out: Foxtail, Giant damage rating (100=total damage to plant; 0=no damage to plant); for pest or weed control at 62.5 g/ha: 62.5 g ai/ha, 100=total damage to plant, 0=no damage to plant, read-out: Foxtail, Giant damage rating; for pest or weed control at 250 g/ha: 250 g ai/ha
Outline: as §1

[7] = test system: velvetleaf (Abutilon theophrasti); experiment: Test G Post-Emergence Protocol; conditions: Abutilon theophrasti, post-emergence, 312 h, read-out: Velvetleaf damage rating; for pest or weed control at 15.625 g/ha: 15.625 g ai/ha, evaluated after 13 days (100=total damage to plant; 0=no damage to plant); for pest or weed control at 62.5 g/ha: 62.5 g ai/ha; for pest or weed control at 62.5 g/ha / pest or weed control at 250 g/ha: evaluated after 13 days, 100=total damage to plant, 0=no damage to plant; for pest or weed control at 250 g/ha: 250 g ai/ha
Outline: (§2)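 Seedlings grown 8 days in soil in a glasshouse (24/16 °C day/night, 14 h light, 65% humidity) were sprayed post-emergence with compound in acetone/water 50:50 plus 0.5% Tween 20 at 15.625, 62.5 or 250 g/ha. Damage was scored after 13 days on a 0–100 scale (100 = total damage).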

[8] = test system: redroot pigweed (Amaranthus retroflexus); experiment: Test G Post-Emergence Protocol; conditions: Amaranthus retroflexus, post-emergence, 312 h, read-out: Pigweed, Redroot damage rating; for pest or weed control at 15.625 g/ha: 15.625 g ai/ha, evaluated after 13 days (100=total damage to plant; 0=no damage to plant); for pest or weed control at 62.5 g/ha: 62.5 g ai/ha; for pest or weed control at 62.5 g/ha / pest or weed control at 250 g/ha: evaluated after 13 days, 100=total damage to plant, 0=no damage to plant; for pest or weed control at 250 g/ha: 250 g ai/ha
Outline: as §2

[9] = test system: ivy-leaved morning glory (Ipomoea hederacea); experiment: Test G Post-Emergence Protocol; conditions: Ipomoea, post-emergence, 312 h, read-out: Morningglory, Ivy-leaved damage rating; for pest or weed control at 15.625 g/ha: 15.625 g ai/ha, evaluated after 13 days (100=total damage to plant; 0=no damage to plant); for pest or weed control at 62.5 g/ha: 62.5 g ai/ha; for pest or weed control at 62.5 g/ha / pest or weed control at 250 g/ha: evaluated after 13 days, 100=total damage to plant, 0=no damage to plant; for pest or weed control at 250 g/ha: 250 g ai/ha
Outline: as §2

[10] = test system: corn (Zea mays); experiment: Test G Post-Emergence Protocol; conditions: Zea mays, post-emergence, 312 h, read-out: Corn damage rating; for plant injury at 15.625 g/ha: 15.625 g ai/ha, evaluated after 13 days (100=total damage to plant; 0=no damage to plant); for plant injury at 62.5 g/ha: 62.5 g ai/ha; for plant injury at 62.5 g/ha / plant injury at 250 g/ha: evaluated after 13 days, 100=total damage to plant, 0=no damage to plant; for plant injury at 250 g/ha: 250 g ai/ha
Outline: as §2

[11] = test system: barnyardgrass (Echinochloa crus-galli); experiment: Test G Post-Emergence Protocol; conditions: Echinochloa crus-galli, post-emergence, 312 h, read-out: Barnyardgrass damage rating; for pest or weed control at 15.625 g/ha: 15.625 g ai/ha, evaluated after 13 days (100=total damage to plant; 0=no damage to plant); for pest or weed control at 62.5 g/ha: 62.5 g ai/ha; for pest or weed control at 62.5 g/ha / pest or weed control at 250 g/ha: evaluated after 13 days, 100=total damage to plant, 0=no damage to plant; for pest or weed control at 250 g/ha: 250 g ai/ha
Outline: as §2

[12] = test system: giant foxtail (Setaria faberi); experiment: Test G Post-Emergence Protocol; conditions: Setaria faberi, post-emergence, 312 h, read-out: Foxtail, Giant damage rating; for pest or weed control at 15.625 g/ha: 15.625 g ai/ha, evaluated after 13 days (100=total damage to plant; 0=no damage to plant); for pest or weed control at 62.5 g/ha: 62.5 g ai/ha; for pest or weed control at 62.5 g/ha / pest or weed control at 250 g/ha: evaluated after 13 days, 100=total damage to plant, 0=no damage to plant; for pest or weed control at 250 g/ha: 250 g ai/ha
Outline: as §2

COc1cc(C)cc([C@@H]2CN(C)C(=O)[C@H]2C(=O)Nc2cccc(F)c2C)c1 (racemic) [Compound 1791]
80%: pest or weed control at 250 g/ha [3] | plant injury at 250 g/ha [4] | pest or weed control at 62.5 g/ha [5] | pest or weed control at 15.625 g/ha [6] | plant injury at 250 g/ha [10] | pest or weed control at 62.5 g/ha [11] | pest or weed control at 250 g/ha [11] | pest or weed control at 15.625 g/ha [12] | pest or weed control at 62.5 g/ha [12] | pest or weed control at 250 g/ha [12]
90%: pest or weed control at 250 g/ha [5] | pest or weed control at 62.5 g/ha [6] | pest or weed control at 250 g/ha [6]
0%: pest or weed control at 15.625 g/ha [1] | pest or weed control at 15.625 g/ha [2] | pest or weed control at 62.5 g/ha [2] | pest or weed control at 15.625 g/ha [8] | pest or weed control at 62.5 g/ha [8] | pest or weed control at 250 g/ha [8]
10%: pest or weed control at 62.5 g/ha [1] | pest or weed control at 250 g/ha [2] | pest or weed control at 15.625 g/ha [3] | pest or weed control at 15.625 g/ha [7]
70%: plant injury at 62.5 g/ha [4] | pest or weed control at 15.625 g/ha [5] | pest or weed control at 62.5 g/ha [9] | pest or weed control at 250 g/ha [9] | plant injury at 62.5 g/ha [10] | pest or weed control at 15.625 g/ha [11]
20%: pest or weed control at 62.5 g/ha [3] | plant injury at 15.625 g/ha [4] | pest or weed control at 250 g/ha [7] | pest or weed control at 15.625 g/ha [9]
30%: pest or weed control at 62.5 g/ha [7] | plant injury at 15.625 g/ha [10]
40%: pest or weed control at 250 g/ha [1]

COc1ccc([C@@H]2CN(C)C(=O)[C@H]2C(=O)Nc2cccc(F)c2C)cc1Cl (racemic) [Compound 1793]
80%: pest or weed control at 250 g/ha [11] | pest or weed control at 62.5 g/ha [12] | pest or weed control at 250 g/ha [12]
0%: pest or weed control at 15.625 g/ha [1] | pest or weed control at 62.5 g/ha [1] | pest or weed control at 15.625 g/ha [2] | pest or weed control at 62.5 g/ha [2] | pest or weed control at 250 g/ha [2] | pest or weed control at 15.625 g/ha [3] | pest or weed control at 62.5 g/ha [3] | plant injury at 15.625 g/ha [4] | pest or weed control at 15.625 g/ha [7] | pest or weed control at 15.625 g/ha [8] | pest or weed control at 62.5 g/ha [8] | pest or weed control at 250 g/ha [8] | pest or weed control at 15.625 g/ha [9]
10%: pest or weed control at 250 g/ha [3] | pest or weed control at 62.5 g/ha [7] | pest or weed control at 62.5 g/ha [9] | plant injury at 15.625 g/ha [10]
20%: plant injury at 62.5 g/ha [4] | pest or weed control at 15.625 g/ha [5]
40%: plant injury at 250 g/ha [4]
70%: pest or weed control at 62.5 g/ha [5] | pest or weed control at 250 g/ha [9] | pest or weed control at 62.5 g/ha [11] | pest or weed control at 15.625 g/ha [12]
90%: pest or weed control at 250 g/ha [5] | pest or weed control at 62.5 g/ha [6] | pest or weed control at 250 g/ha [6]
50%: plant injury at 250 g/ha [10]
30%: pest or weed control at 250 g/ha [1] | pest or weed control at 15.625 g/ha [6] | pest or weed control at 250 g/ha [7] | plant injury at 62.5 g/ha [10] | pest or weed control at 15.625 g/ha [11]

CN1C[C@H](c2cc(C(F)(F)F)cc(C(F)(F)F)c2)[C@@H](C(=O)Nc2ccccc2S(C)(=O)=O)C1=O (racemic) [Compound 1794]
90%: pest or weed control at 250 g/ha [6]
60%: pest or weed control at 62.5 g/ha [6] | pest or weed control at 62.5 g/ha [12]
40%: pest or weed control at 62.5 g/ha [5] | pest or weed control at 62.5 g/ha [8] | pest or weed control at 62.5 g/ha [11]
30%: plant injury at 15.625 g/ha [4] | pest or weed control at 15.625 g/ha [6]
70%: pest or weed control at 250 g/ha [8] | pest or weed control at 250 g/ha [9] | plant injury at 250 g/ha [10] | pest or weed control at 250 g/ha [11]
80%: pest or weed control at 250 g/ha [2] | plant injury at 250 g/ha [4] | pest or weed control at 250 g/ha [5] | pest or weed control at 250 g/ha [12]
0%: pest or weed control at 15.625 g/ha [1] | pest or weed control at 62.5 g/ha [1] | pest or weed control at 250 g/ha [1] | pest or weed control at 15.625 g/ha [2] | pest or weed control at 62.5 g/ha [2] | pest or weed control at 15.625 g/ha [3] | pest or weed control at 62.5 g/ha [3] | pest or weed control at 15.625 g/ha [5] | pest or weed control at 15.625 g/ha [7] | pest or weed control at 62.5 g/ha [7] | pest or weed control at 15.625 g/ha [8] | pest or weed control at 15.625 g/ha [11] | pest or weed control at 15.625 g/ha [12]
20%: pest or weed control at 15.625 g/ha [9] | plant injury at 15.625 g/ha [10]
50%: plant injury at 62.5 g/ha [4] | pest or weed control at 62.5 g/ha [9] | plant injury at 62.5 g/ha [10]
10%: pest or weed control at 250 g/ha [3] | pest or weed control at 250 g/ha [7]
